Reference: patent US8952024B2, “Herbicidal pyrimidone derivatives” (E I du Pont de Nemours and Company, priority 2009, dated 2015)
Like-named read-outs stand apart in the source and are kept apart here.

Columns and labels:
Type in all cases: in vivo
[1] = system: large crabgrass (Digitaria sanguinalis); assay: Test B pre-/postemergence plant response; details: Preemergence
From the text: (§1) Seeds of plant species selected from blackgrass (Alopecurus myosuroides), downy bromegrass (Bromus tectorum), green foxtail (Setaria viridis), Italian ryegrass (Lolium multiflorum), wheat (Triticum aestivum), wild oat (Avena fatua), deadnettle (henbit deadnettle, Lamium amplexicaule), galium (catchweed bedstraw, Galium aparine), bermudagrass (Cynodon dactylon), Surinam grass (Brachiaria decumbens), cocklebur (Xanthium strumarium), corn (Zea mays), large crabgrass (Digitaria sanguinalis), woolly cupgrass (Eriochloa villosa), giant foxtail (Setaria faberii), goosegrass (Eleusine indica), johnsongrass (Sorghum halepense), kochia (Kochia scoparia), lambsquarters (Chenopodium album), morningglory (Ipomoea coccinea), nightshade (eastern black nightshade, Solanum ptycanthum), yellow nutsedge (Cyperus esculentus), pigweed (Amaranthus retroflexus), ragweed (common ragweed, Ambrosia elatior), Russian thistle (Salsola kali), soybean (Glycine max), sunflower (common oilseed sunflower, Helianthus annuus) and velvetleaf (Abutilon theophrasti) were planted into a blend of loam soil and sand and treated preemergence with test compounds formulated in a non-phytotoxic solvent mixture which included a surfactant.
(§2) At the same time, plants selected from these crop and weed species and also winter barley (Hordeum vulgare), canarygrass (Phalaris minor), chickweed (Stellaria media) and windgrass (Apera spica-venti) were planted in pots containing Redi-Earth® planting medium (Scotts Company, 14111 Scottslawn Road, Marysville, Ohio 43041) comprising spaghnum peat moss, vermiculite, wetting agent and starter nutrients and treated with postemergence applications of some of the test chemicals formulated in the same manner. Plants ranged in height from 2 to 18 cm (1- to 4-leaf stage) for postemergence treatments.
(§3) Treated plants and controls were maintained in a greenhouse for 13 to 15 days, after which time all treated plants were visually evaluated and compared to controls. Plant response ratings, summarized in Table B, are based on a scale of 0 to 100 where 0 is no effect and 100 is complete control. A dash (-) response means no test result.

[2] = system: ragweed (common ragweed, Ambrosia elatior); assay: Test B pre-/postemergence plant response; details: for pest or weed control at 31 g/ha: 31 g ai/ha; for pest or weed control at 62 g/ha: 62 g ai/ha
From the text: as §1, §2, §3

[3] = system: soybean (Glycine max); assay: Test B pre-/postemergence plant response; details: for plant injury at 31 g/ha: 31 g ai/ha, scale 0 to 100 (0 no effect, 100 complete control); for plant injury at 62 g/ha: 62 g ai/ha
From the text: as §1, §2, §3

[4] = system: velvetleaf (Abutilon theophrasti); assay: Test B pre-/postemergence plant response; details: for pest or weed control at 31 g/ha: 31 g ai/ha; for pest or weed control at 31 g/ha / pest or weed control at 62 g/ha: read-out: Plant response rating, Velvetleaf; for pest or weed control at 62 g/ha: 62 g ai/ha
From the text: as §1, §2, §3

[5] = system: wild oat (Avena fatua); assay: Test B pre-/postemergence plant response; details: for pest or weed control at 16 g/ha: 16 g ai/ha; for pest or weed control at 62 g/ha: 62 g ai/ha
From the text: as §1, §2, §3

[6] = system: woolly cupgrass (Eriochloa villosa); assay: Test B pre-/postemergence plant response; details: for pest or weed control at 16 g/ha: 16 g ai/ha; for pest or weed control at 16 g/ha / pest or weed control at 31 g/ha / pest or weed control at 62 g/ha: read-out: Plant response rating, Cupgrass, Woolly; for pest or weed control at 31 g/ha: 31 g ai/ha; for pest or weed control at 62 g/ha: 62 g ai/ha
From the text: as §1, §2, §3

[7] = system: yellow nutsedge (Cyperus esculentus); assay: Test B pre-/postemergence plant response; details: for pest or weed control at 16 g/ha: 16 g ai/ha; for pest or weed control at 16 g/ha / pest or weed control at 31 g/ha / pest or weed control at 62 g/ha: read-out: Plant response rating, Nutsedge, Yellow; for pest or weed control at 31 g/ha: 31 g ai/ha; for pest or weed control at 62 g/ha: 62 g ai/ha
From the text: as §1, §2, §3

[8] = system: canarygrass (Phalaris minor); assay: Test B postemergence plant response; details: Phalaris minor, post-emergence, 360 h, Postemergence
Procedure, shortened: (§4)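 Plants at the 1- to 4-leaf stage (2 to 18 cm tall), grown in pots of peat moss/vermiculite medium with wetting agent and starter nutrients, received postemergence applications of test chemicals. After 13 to 15 days in a greenhouse, injury was rated visually against untreated controls on a 0 (no effect) to 100 (complete control) scale.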

[9] = system: chickweed (Stellaria media); assay: Test B postemergence plant response; details: Stellaria media, post-emergence, 360 h, Postemergence
Procedure, shortened: as §4

[10] = system: windgrass (Apera spica-venti); assay: Test B postemergence plant response; details: Apera spica-venti, post-emergence, 360 h, Postemergence
Procedure, shortened: as §4

[11] = system: winter barley (Hordeum vulgare); assay: Test B postemergence plant response; details: Hordeum vulgare, post-emergence, Postemergence, read-out: Plant response rating, Barley
Procedure, shortened: as §4

[12] = Ambrosia artemisiifolia, pre-emergence, 360 h, Preemergence, scale 0 to 100 (0 no effect, 100 complete control), read-out: Plant response rating, Ragweed
[13] = Preemergence, 125 g ai/ha, 0 to 100 scale
[14] = Abutilon theophrasti, pre-emergence, 360 h, Preemergence, scale 0 to 100 (0 no effect, 100 complete control)
[15] = Avena fatua, pre-emergence, Preemergence, scale 0 to 100 (0 no effect, 100 complete control), read-out: Plant response rating, Oat, Wild
[16] = Eriochloa villosa, pre-emergence, Preemergence, scale 0 to 100 (0 no effect, 100 complete control)
[17] = Cyperus, pre-emergence, Preemergence, scale 0 to 100 (0 no effect, 100 complete control)
[18] = 125 g ai/ha, visual rating after 13 to 15 days, scale 0 (no effect) to 100 (complete control)

O=C1CCCC(O)=C1C(=O)c1cnc(-c2ccccc2)n(-c2ccccc2)c1=O [Compound 2, 5-[(2-hydroxy-6-oxo-1-cyclohexen-1-yl)carbonyl]-2,3-diphenyl-4(3H)-pyrimidinone]
pest or weed control at 62 g/ha ([1]; Digitaria sanguinalis, pre-emergence, 62 g ai/ha, scale 0 to 100, 0 no effect, 100 complete control, read-out: Plant response rating, Crabgrass, Large): 100%
Crabgrass, Large plant response rating ([1]; 125 g ai/ha, 0 to 100 scale): 100
pest or weed control at 16 g/ha ([2]; Ambrosia artemisiifolia, post-emergence, 360 h, 16 g ai/ha, Postemergence, 0 to 100 scale, read-out: Plant response rating, Ragweed): 65%
pest or weed control at 31 g/ha ([2]; Ambrosia artemisiifolia, post-emergence, 360 h, Postemergence, scale 0 to 100 (0 no effect, 100 complete control), read-out: Plant response rating, Ragweed): 70%
pest or weed control at 62 g/ha ([2]; Ambrosia artemisiifolia, post-emergence, 360 h, Postemergence, scale 0 (no effect) to 100 (complete control), 13 to 15 days, read-out: Plant response rating, Ragweed): 80%
pest or weed control at 125 g/ha ([2]; Ambrosia artemisiifolia, post-emergence, 360 h, Postemergence, 125 g ai/ha, visual rating after 13 to 15 days, scale 0 (no effect) to 100 (complete control)): 90%
pest or weed control at 31 g/ha [2, 12]: 60%
pest or weed control at 62 g/ha [2, 12]: 85%
Ragweed plant response rating [2, 13]: 98
plant injury at 16 g/ha ([3]; Glycine max, post-emergence, 16 g ai/ha, Postemergence, 0 to 100 scale, read-out: Plant response rating, Soybean): 75%
plant injury at 31 g/ha ([3]; Glycine max, post-emergence, Postemergence, read-out: Plant response rating, Soybean): 80%
plant injury at 62 g/ha ([3]; Glycine max, post-emergence, Postemergence, scale 0 (no effect) to 100 (complete control), 13 to 15 days, read-out: Plant response rating, Soybean): 90%
plant injury at 125 g/ha ([3]; Glycine max, post-emergence, Postemergence, 125 g ai/ha, visual rating after 13 to 15 days, scale 0 (no effect) to 100 (complete control)): 95%
plant injury at 31 g/ha ([3]; Glycine max, pre-emergence, Preemergence, read-out: Plant response rating, Soybean): 15%
plant injury at 62 g/ha ([3]; Glycine max, pre-emergence, Preemergence, scale 0 to 100, 0 no effect, 100 complete control, read-out: Plant response rating, Soybean): 60%
Soybean plant response rating [3, 13]: 70
pest or weed control at 31 g/ha ([4]; Abutilon theophrasti, post-emergence, 360 h, Postemergence, scale 0 to 100 (0 no effect, 100 complete control)): 85%
pest or weed control at 62 g/ha ([4]; Abutilon theophrasti, post-emergence, 360 h, Postemergence, scale 0 (no effect) to 100 (complete control), 13 to 15 days): 85%
pest or weed control at 125 g/ha ([4]; Abutilon theophrasti, post-emergence, 360 h, Postemergence, 125 g ai/ha, visual rating after 13 to 15 days, scale 0 (no effect) to 100 (complete control)): 90%
pest or weed control at 31 g/ha [4, 14]: 75%
pest or weed control at 62 g/ha [4, 14]: 90%
Velvetleaf plant response rating [4, 13]: 100
pest or weed control at 16 g/ha ([5]; Avena fatua, post-emergence, Postemergence, 0 to 100 scale, read-out: Plant response rating, Oat, Wild): 5%
pest or weed control at 31 g/ha ([5]; Avena fatua, post-emergence, Postemergence, 31 g ai/ha, scale 0 to 100 (0 no effect, 100 complete control), read-out: Plant response rating, Oat, Wild): 30%
pest or weed control at 62 g/ha ([5]; Avena fatua, post-emergence, Postemergence, scale 0 (no effect) to 100 (complete control), 13 to 15 days, read-out: Plant response rating, Oat, Wild): 45%
pest or weed control at 125 g/ha ([5]; Avena fatua, post-emergence, Postemergence, 125 g ai/ha, visual rating after 13 to 15 days, scale 0 (no effect) to 100 (complete control)): 55%
pest or weed control at 16 g/ha [5, 15]: 0%
pest or weed control at 62 g/ha [5, 15]: 5%
Oat, Wild plant response rating [5, 13]: 50
pest or weed control at 16 g/ha ([6]; Eriochloa villosa, post-emergence, Postemergence, 0 to 100 scale): 75%
pest or weed control at 31 g/ha ([6]; Eriochloa villosa, post-emergence, Postemergence, scale 0 to 100 (0 no effect, 100 complete control)): 75%
pest or weed control at 62 g/ha ([6]; Eriochloa villosa, post-emergence, Postemergence, scale 0 (no effect) to 100 (complete control), 13 to 15 days): 80%
pest or weed control at 125 g/ha ([6]; Eriochloa villosa, post-emergence, Postemergence, 125 g ai/ha, visual rating after 13 to 15 days, scale 0 (no effect) to 100 (complete control)): 85%
pest or weed control at 16 g/ha [6, 16]: 0%
pest or weed control at 31 g/ha [6, 16]: 0%
pest or weed control at 62 g/ha ([6]; Eriochloa villosa, pre-emergence, Preemergence, scale 0 to 100, 0 no effect, 100 complete control): 15%
Cupgrass, Woolly plant response rating [6, 13]: 20
pest or weed control at 16 g/ha ([7]; Cyperus, post-emergence, Postemergence, 0 to 100 scale): 40%
pest or weed control at 31 g/ha ([7]; Cyperus, post-emergence, Postemergence, scale 0 to 100 (0 no effect, 100 complete control)): 45%
pest or weed control at 62 g/ha ([7]; Cyperus, post-emergence, Postemergence, scale 0 (no effect) to 100 (complete control), 13 to 15 days): 60%
pest or weed control at 125 g/ha ([7]; Cyperus, post-emergence, Postemergence, 125 g ai/ha, visual rating after 13 to 15 days, scale 0 (no effect) to 100 (complete control)): 75%
pest or weed control at 16 g/ha [7, 17]: 0%
pest or weed control at 31 g/ha [7, 17]: 15%
pest or weed control at 62 g/ha [7, 17]: 40%
Nutsedge, Yellow plant response rating [7, 13]: 70
pest or weed control at 16 g/ha ([8]; 16 g ai/ha, 0 to 100 scale, read-out: Plant response rating, Canarygrass): 20%
pest or weed control at 31 g/ha ([8]; 31 g ai/ha, scale 0 to 100 (0 no effect, 100 complete control), read-out: Plant response rating, Canarygrass): 40%
pest or weed control at 62 g/ha ([8]; 62 g ai/ha, scale 0 (no effect) to 100 (complete control), 13 to 15 days, read-out: Plant response rating, Canarygrass): 50%
pest or weed control at 125 g/ha [8, 18]: 80%
pest or weed control at 16 g/ha ([9]; 16 g ai/ha, 0 to 100 scale, read-out: Plant response rating, Chickweed): 70%
pest or weed control at 31 g/ha ([9]; 31 g ai/ha, scale 0 to 100 (0 no effect, 100 complete control), read-out: Plant response rating, Chickweed): 75%
pest or weed control at 62 g/ha ([9]; 62 g ai/ha, scale 0 (no effect) to 100 (complete control), 13 to 15 days, read-out: Plant response rating, Chickweed): 90%
pest or weed control at 125 g/ha [9, 18]: 95%
pest or weed control at 16 g/ha ([10]; 16 g ai/ha, 0 to 100 scale, read-out: Plant response rating, Windgrass): 10%
pest or weed control at 31 g/ha ([10]; 31 g ai/ha, scale 0 to 100 (0 no effect, 100 complete control), read-out: Plant response rating, Windgrass): 10%
pest or weed control at 62 g/ha ([10]; 62 g ai/ha, scale 0 (no effect) to 100 (complete control), 13 to 15 days, read-out: Plant response rating, Windgrass): 15%
pest or weed control at 125 g/ha [10, 18]: 50%
plant injury at 16 g/ha ([11]; 16 g ai/ha, 0 to 100 scale): 0%
plant injury at 31 g/ha ([11]; 31 g ai/ha, scale 0 to 100 (0 no effect, 100 complete control)): 10%
plant injury at 62 g/ha ([11]; 62 g ai/ha, scale 0 (no effect) to 100 (complete control), 13 to 15 days): 20%
plant injury at 125 g/ha ([11]; 125 g ai/ha, scale 0 to 100 (0 no effect, 100 complete control), 13 to 15 days): 30%
